In patent US20030203055A1, “Methods of treating visceral pain syndromes” (Cypress Bioscience, Inc., priority 2002, published 2003):

What was measured:
[1] = tested on: patients with a diagnosis of Irritable Bowel Syndrome (IBS) comorbid with fibromyalgia; test: 12-week dose escalation monotherapy trial of milnacipran in Irritable Bowel Syndrome; format: in vivo, human; details: 11 IBS/fibromyalgia patients, 25 to 200 mg daily
Experimental: A 12-week dose escalation monotherapy trial was conducted to evaluate milnacipran's efficacy in patients with a diagnosis of Irritable Bowel Syndrome (IBS) comorbid with fibromyalgia. Patients were washed off of a variety medications-including centrally acting stimulants, antidepressants and sedative-hypnotics-over a 2-4 week period; this was followed by a two-week baseline period. After successful completion of the baseline period, patients were started on milnacipran. All patients were started at a dose of 25 mg daily, and were then escalated weekly over a 4-week period to 50, 100, and finally 200 mg daily, or until dose-limiting toxicity (DLT) was evident. In the event that DLT was evident, the patient was stabilized at the previously well-tolerated dosage, and remained on this dose for eight weeks at stable dose therapy.
The patient global impression of change (PGIC) was administered at clinic visits scheduled during the 4th, 8th, and 12th weeks of treatment. The PGIC is a highly clinically relevant instrument useful for measurement of patient improvement during controlled clinical trials. (Indeed, this instrument was the basis by which alosetron (Lotronex™) was approved by the Food and Drug Administration for the IBS indication.)
The PGIC is a conceptually simple instrument which assesses the patient's overall satisfaction with a course of drug therapy. This is done by asking the patient, “Since the start of the study, my overall status is:” with the patient choosing from the 7 choices depicted in Table 1.
For the present purposes, responses between 1-3 and 5-7 were collapsed into “Improved” and “Worse”, respectively.

norepinephrine reuptake = details: cited from earlier work; for activity in inhibiting norepinephrine reuptake relative to the racemic mixture: believed, Viazzo et al. 1996, Deprez et al. 1998
serotonin reuptake = details: cited from earlier work; for activity in inhibiting serotonin reuptake relative to the racemic mixture: believed, Viazzo et al. 1996, Deprez et al. 1998
NMDA receptor = details: Shuto et al. 1995, 1996, 1998, 2001; cited from earlier work
[2] = in humans; Caccia 1998; cited from earlier work

## CCN(CC)C(=O)[C@@]1(c2ccccc2)C[C@H]1CN (racemic) [milnacipran, (±)-cis-2-(aminomethyl)-N,N-diethyl-1-phenylcyclopropanecarboxamide]
[1]
  trial conclusion: therapy for IBS (PGIC at 12 weeks): safe and effective therapy for IBS
[1]; 12 weeks
  most common adverse event: intermittent nausea
  nature of milnacipran related adverse events: transitory in nature
  reported AE of constipation: one
  serious adverse events during the course of the trial: no serious adverse events
Norepinephrine reuptake; reported, Moret et al. 1985, Palmier et al. 1989
  IC50: […]
Serotonin reuptake; reported, Moret et al. 1985, Palmier et al. 1989, read-out: IC50 serotonin reuptake inhibition
  IC50: 200 nM
NMDA receptor
  antagonistic properties at the NMDA receptor: have antagonistic properties at the NMDA receptor
[2]
  found in urine: found in urine

## CCN(CC)C(=O)C1(c2ccc(O)cc2)CC1CN (centres unmarked) [para-hydroxylated derivative]
[2]
  found in urine: found in urine
